Results published in PMC10184511 (Neuro-Oncology Advances, 2023).

What was measured:
[1] = description in words; cited from earlier work
[2] = metastatic melanoma patients, 200 mg/m^2 TMZ; cited from earlier work
[3] = In vitro 3D BBB permeability assay; assay type: in vitro ADME; details: human, pH 7
[4] = test system: BBB; details: previous report; cited from earlier work
[5] = test system: p53-p21 axis in Mel-7 cells; assay: Western blotting of p53-p21 axis, cell-cycle proteins and Cyt c, Mel-7; assay type: cell-based, human; details: 24 hours

Q: With `Cn1nnc2c(C(N)=O)ncn2c1=O` [TMZ, temozolomide] as the molecule, how does the lipophilicity [1] read?
A: lipophilic

Q: What about the Cmax [2] of the same molecule?
A: ~ 20 μg/mL

Q: And the Papp A→B at 30 min, 100 μM [3]?
A: 2.67 ×10⁻⁶ cm/s

Q: And the BBB permeability [4]?
A: 2.7 ×10⁻⁶ cm/s

Q: What about the “Cyt c release into the cytoplasm” value ([5]; single agent, cytosolic fraction) of the same molecule?
A: increased

Q: What about the p53 levels ([5]; single-agent treatment, whole-cell lysate) of the same molecule?
A: substantially increased
